Reference: US10562887B2, “Triazolones and tetrazolones as inhibitors of ROCK” (BRISTOL-MYERS SQUIBB COMPANY, priority 2016, dated 2020)

Target: ROCK2 (Homo sapiens (Human), UniProt O75116)
Experiment: ROCK2 assay (peptide phosphorylation, LABCHIP 3000 Reader)
Format: biochemical
Details: 5 μM ATP, 1.5 μM peptide substrate
Protocol: The effectiveness of compounds of the present invention as ROCK inhibitors can be determined in a 30 μL, assay containing 20 mM HEPES, pH 7.5, 20 mM MgCl2, 0.015% Brij-35, 4 mM DTT, 5 μM ATP and 1.5 μM peptide substrate (FITC-AHA-AKRRRLSSLRA-OH). Compounds were dissolved in DMSO so that the final concentration of DMSO was <2%, and the reaction was initiated with Rho kinase variants. After incubation, the reaction was terminated by the addition of EDTA and the phosphorylated and non-phosphorylated peptides separated using a LABCHIP® 3000 Reader (Caliper Life Sciences). […] Compounds were tested in dose-response format, and the inhibition of kinase activity was calculated at each concentration of compound. The inhibition data were fit using a curve-fitting program to determine the IC50; i.e., the concentration of compound required to inhibit 50% of kinase activity.
Representative Examples were tested in the ROCK2 assay described above and found having ROCK2 inhibitory activity.

Chain of ROCK2 (O75116 whole entry, species assumed): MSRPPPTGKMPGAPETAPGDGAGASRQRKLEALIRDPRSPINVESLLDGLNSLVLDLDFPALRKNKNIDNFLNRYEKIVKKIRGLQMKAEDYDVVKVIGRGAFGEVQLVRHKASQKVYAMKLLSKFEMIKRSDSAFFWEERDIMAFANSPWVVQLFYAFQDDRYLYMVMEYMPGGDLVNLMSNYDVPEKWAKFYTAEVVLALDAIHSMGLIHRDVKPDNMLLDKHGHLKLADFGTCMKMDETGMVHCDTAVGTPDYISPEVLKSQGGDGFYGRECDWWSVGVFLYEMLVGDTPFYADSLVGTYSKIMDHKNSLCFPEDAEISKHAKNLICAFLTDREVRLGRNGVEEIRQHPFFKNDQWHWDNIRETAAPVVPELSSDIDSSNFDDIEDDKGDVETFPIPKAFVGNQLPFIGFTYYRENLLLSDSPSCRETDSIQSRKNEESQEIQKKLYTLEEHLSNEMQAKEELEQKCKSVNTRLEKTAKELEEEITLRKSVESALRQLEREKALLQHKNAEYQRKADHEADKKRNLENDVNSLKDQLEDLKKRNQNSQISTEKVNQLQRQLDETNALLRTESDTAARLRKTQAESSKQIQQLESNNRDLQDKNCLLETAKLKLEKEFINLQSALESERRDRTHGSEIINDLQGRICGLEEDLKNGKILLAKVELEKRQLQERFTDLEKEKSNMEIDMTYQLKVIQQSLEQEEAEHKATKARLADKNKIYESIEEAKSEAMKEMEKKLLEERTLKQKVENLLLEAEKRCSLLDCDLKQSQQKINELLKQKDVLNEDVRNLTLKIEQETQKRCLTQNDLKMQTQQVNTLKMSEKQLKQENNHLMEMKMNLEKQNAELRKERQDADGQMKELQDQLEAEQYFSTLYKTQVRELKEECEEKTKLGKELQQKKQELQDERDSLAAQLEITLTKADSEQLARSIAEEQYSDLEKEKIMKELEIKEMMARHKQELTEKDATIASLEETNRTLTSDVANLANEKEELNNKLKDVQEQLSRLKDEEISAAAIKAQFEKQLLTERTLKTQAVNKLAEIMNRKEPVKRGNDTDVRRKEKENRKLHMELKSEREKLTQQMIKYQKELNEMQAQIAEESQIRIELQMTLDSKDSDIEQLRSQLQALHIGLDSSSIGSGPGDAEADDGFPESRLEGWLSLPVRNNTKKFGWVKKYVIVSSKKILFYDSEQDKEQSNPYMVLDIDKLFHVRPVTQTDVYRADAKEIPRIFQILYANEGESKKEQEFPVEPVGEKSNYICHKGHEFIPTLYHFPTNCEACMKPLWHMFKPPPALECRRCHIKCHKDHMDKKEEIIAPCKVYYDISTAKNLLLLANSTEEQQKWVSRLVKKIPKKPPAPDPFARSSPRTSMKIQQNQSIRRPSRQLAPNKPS

Row | IC50 [nM] | SMILES
1 | 5 to 50 | COc1cc(-n2ncn(Cc3ccccc3Cl)c2=O)ccc1-c1cn[nH]c1 [Example 32, 4-(2-chlorobenzyl)-1-(3-methoxy-4-(1H-pyrazol-4-yl)phenyl)-1H-1,2,4-triazol-5(4H)-one]
2 | 5 to 50 | O=c1n(Cc2c(F)cccc2F)cnn1-c1ccc(-c2cn[nH]c2)cc1 [Example 33, 1-(4-(1H-pyrazol-4-yl)phenyl)-4-(2,6-difluorobenzyl)-1H-1,2,4-triazol-5(4H)-one]
3 | 50 to 250 | N#Cc1cccc(Cn2cnn(-c3ccc(-c4cn[nH]c4)cc3)c2=O)c1 [Example 34, 3-((1-(4-(1H-pyrazol-4-yl)phenyl)-5-oxo-1H-1,2,4-triazol-4(5H)-yl)methyl)benzonitrile]
4 | 50 to 250 | COc1cc(-n2ncn(Cc3cccc(C#N)c3)c2=O)ccc1-c1cn[nH]c1 [Example 35, 3-((1-(3-methoxy-4-(1H-pyrazol-4-yl)phenyl)-5-oxo-1H-1,2,4-triazol-4(5H)-yl)methyl)benzonitrile]
5 | 5 to 50 | COc1cc(-n2ncn(Cc3cc(F)cc(F)c3)c2=O)ccc1-c1cn[nH]c1 [Example 36, 4-(3,5-difluorobenzyl)-1-(3-methoxy-4-(1H-pyrazol-4-yl)phenyl)-1H-1,2,4-triazol-5(4H)-one]
6 | 5 to 50 | COc1cc(-n2ncn(Cc3cccc(OC(F)F)c3)c2=O)ccc1-c1cn[nH]c1 [Example 37, 4-(3-(difluoromethoxy)benzyl)-1-(3-methoxy-4-(1H-pyrazol-4-yl)phenyl)-1H-1,2,4-triazol-5(4H)-one]
7 | 50 to 250 | COc1cc(-n2ncn(Cc3ccc(F)cc3)c2=O)ccc1-c1cn[nH]c1 [Example 38, 4-(4-fluorobenzyl)-1-(3-methoxy-4-(1H-pyrazol-4-yl)phenyl)-1H-1,2,4-triazol-5(4H)-one]
8 | 5 to 50 | COc1cc(-n2ncn(Cc3c(F)cccc3F)c2=O)ccc1-c1cn[nH]c1 [Example 39, 4-(2,6-difluorobenzyl)-1-(3-methoxy-4-(1H-pyrazol-4-yl)phenyl)-1H-1,2,4-triazol-5(4H)-one]
9 | 5 to 50 | CCc1cc(-n2ncn(Cc3cc(F)cc(OC)c3)c2=O)ccc1-c1cn[nH]c1 [Example 40, 1-(3-ethyl-4-(1H-pyrazol-4-yl)phenyl)-4-(3-fluoro-5-methoxybenzyl)-1H-1,2,4-triazol-5(4H)-one]
10 | 250 to 2000 | CCc1cc(-n2ncn(Cc3cccc(C#N)c3)c2=O)ccc1-c1cn[nH]c1 [Example 41, 3-((1-(3-ethyl-4-(1H-pyrazol-4-yl)phenyl)-5-oxo-1H-1,2,4-triazol-4(5H)-yl)methyl)benzonitrile]
11 | 250 to 2000 | CCc1cc(-n2ncn(Cc3ccccc3F)c2=O)ccc1-c1cn[nH]c1 [Example 42, 1-(3-ethyl-4-(1H-pyrazol-4-yl)phenyl)-4-(2-fluorobenzyl)-1H-1,2,4-triazol-5(4H)-one]
12 | 250 to 2000 | CCc1cc(-n2ncn(Cc3ccc(F)cc3)c2=O)ccc1-c1cn[nH]c1 [Example 43, 1-(3-ethyl-4-(1H-pyrazol-4-yl)phenyl)-4-(4-fluorobenzyl)-1H-1,2,4-triazol-5(4H)-one]
13 | 5 to 50 | CCc1cc(-n2ncn(Cc3cc(F)cc(F)c3)c2=O)ccc1-c1cn[nH]c1 [Example 44, 4-(3,5-difluorobenzyl)-1-(3-ethyl-4-(1H-pyrazol-4-yl)phenyl)-1H-1,2,4-triazol-5(4H)-one]
14 | 5 to 50 | CCc1cc(-n2ncn(Cc3cccc(OC)c3)c2=O)ccc1-c1cn[nH]c1 [Example 45, 1-(3-ethyl-4-(1H-pyrazol-4-yl)phenyl)-4-(3-methoxybenzyl)-1H-1,2,4-triazol-5(4H)-one]
15 | 50 to 250 | CCc1cc(-n2ncn(Cc3cccc(OC(F)F)c3)c2=O)ccc1-c1cn[nH]c1 [Example 46, 4-(3-(difluoromethoxy)benzyl)-1-(3-ethyl-4-(1H-pyrazol-4-yl)phenyl)-1H-1,2,4-triazol-5(4H)-one]
16 | 250 to 2000 | COc1cc(Cn2cnn(-c3ccc(-c4cn[nH]c4)cc3)c2=O)cc(OC)c1 [Example 49, 1-(4-(1H-pyrazol-4-yl)phenyl)-4-(3,5-dimethoxybenzyl)-1H-1,2,4-triazol-5(4H)-one]
17 | < 5 | COc1cc(Cn2cnn(-c3ccc(-c4cn[nH]c4)cc3)c2=O)ccc1F [Example 50, 4-[(4-fluoro-3-methoxyphenyl)methyl]-1-[4-(1H-pyrazol-4-yl)phenyl]-4,5-dihydro-1H-1,2,4-triazol-5-one]
18 | 5 to 50 | COc1cccc(Cn2cnn(-c3ccc(-c4cn[nH]c4)cc3)c2=O)c1F [Example 51, 1-(4-(1H-pyrazol-4-yl)phenyl)-4-(2-fluoro-3-methoxybenzyl)-1H-1,2,4-triazol-5(4H)-one]
19 | 250 to 2000 | COc1ccc(F)cc1Cn1cnn(-c2ccc(-c3cn[nH]c3)cc2)c1=O [Example 52, 1-(4-(1H-pyrazol-4-yl)phenyl)-4-(5-fluoro-2-methoxybenzyl)-1H-1,2,4-triazol-5(4H)-one]
20 | 250 to 2000 | COc1ccc(Cn2cnn(-c3ccc(-c4cn[nH]c4)cc3)c2=O)cc1F [Example 53, 1-(4-(1H-pyrazol-4-yl)phenyl)-4-(3-fluoro-4-methoxybenzyl)-1H-1,2,4-triazol-5(4H)-one]
21 | 50 to 250 | CCc1cc(-n2ncn(Cc3ccccc3)c2=O)ccc1-c1cn[nH]c1 [Example 54, 4-benzyl-1-(3-ethyl-4-(1H-pyrazol-4-yl)phenyl)-1H-1,2,4-triazol-5(4H)-one]
22 | 5 to 50 | CCc1cc(-n2ncn(Cc3cccc(F)c3)c2=O)ccc1-c1cn[nH]c1 [Example 55, 1-(3-ethyl-4-(1H-pyrazol-4-yl)phenyl)-4-(3-fluorobenzyl)-1H-1,2,4-triazol-5(4H)-one]
23 | 250 to 2000 | CCc1cc(-n2ncn(Cc3c(F)cccc3F)c2=O)ccc1-c1cn[nH]c1 [Example 57, 4-(2,6-difluorobenzyl)-1-(3-ethyl-4-(1H-pyrazol-4-yl)phenyl)-1H-1,2,4-triazol-5(4H)-one]
24 | 5 to 50 | CCc1cc(-n2ncn(C(C)c3ccccc3)c2=O)ccc1-c1cn[nH]c1 (centres unmarked) [Example 58, 1-(3-ethyl-4-(1H-pyrazol-4-yl)phenyl)-4-(1-phenylethyl)-1H-1,2,4-triazol-5(4H)-one]
25 | 250 to 2000 | Cc1nn(Cc2ccccc2)c(=O)n1-c1ccc(-c2cn[nH]c2)cc1 [Example 59, 4-(4-(1H-pyrazol-4-yl)phenyl)-1-benzyl-3-methyl-1H-1,2,4-triazol-5(4H)-one]
26 | 250 to 2000 | COc1cc(-n2c(C)nn(Cc3ccccc3)c2=O)ccc1-c1cn[nH]c1 [Example 60, 1-benzyl-4-(3-methoxy-4-(1H-pyrazol-4-yl)phenyl)-3-methyl-1H-1,2,4-triazol-5(4H)-one]
27 | 50 to 250 | COc1cccc(Cn2nc(C)n(-c3ccc(-c4cn[nH]c4)c(OC)c3)c2=O)c1 [Example 61, 4-(3-methoxy-4-(1H-pyrazol-4-yl)phenyl)-1-(3-methoxybenzyl)-3-methyl-1H-1,2,4-triazol-5(4H)-one]
28 | 250 to 2000 | COc1cc(-n2c(C)nn(C(C)c3ccccc3)c2=O)ccc1-c1cn[nH]c1 (centres unmarked) [Example 62, 4-(3-methoxy-4-(1H-pyrazol-4-yl)phenyl)-3-methyl-1-(1-phenylethyl)-1H-1,2,4-triazol-5(4H)-one]
29 | 250 to 2000 | COc1cc(-c2cn[nH]c2)ccc1-n1c(C)nn(Cc2ccccc2)c1=O [Example 63, 1-benzyl-4-(2-methoxy-4-(1H-pyrazol-4-yl)phenyl)-3-methyl-1H-1,2,4-triazol-5(4H)-one]
